Assays:
NMDA receptors = test: Electrophysiological patch clamp test of the NMDA-induced current in hippocampal CA1 neurons; type: cell-based, rat
Procedure: Under the circumstances, the effects of docosahexaenoic acid on NMDA receptors of PCP were investigated.
The investigation was conducted by an electrophysiological procedure. More specifically, the brain of a 2-week-old rat was delivered and slices were prepared. Then, neurons were taken from the hippocampal CA1 region and used as samples. An electrophysiological test was conducted by a patch clamp method under fixed potential conditions.

[1] = tested on: negative symptoms of schizophrenia; test: One-month oral administration to subjects, compared with placebo; type: in vivo; details: human, oral 300 mg three times a day
Procedure: Sixteen subjects aged from 35 to 60 were treated with either the antipsychotic of the present invention or a placebo. Eleven out of these sixteen subjects had been treated with chlorpromazine and haloperidol in the past. Eight subjects were treated with the antipsychotic of the present invention and the other eight were treated with the placebo.
Docosahexaenoic acid or placebo was orally administered to the subjects three times a day, each in a dose of 300 mg.

Structure (SMILES): CN[C@H](CC(=O)O)C(=O)O [NMDA, N-methyl-D-aspartic acid]
- inward current caused by NMDA (NMDA receptors; 30 μM NMDA, holding potential -50 mV, rat hippocampal CA1 neurons): 300 pA

Structure (SMILES): c1ccc(C2(N3CCCCC3)CCCCC2)cc1 [PCP, phencyclidine]
- change of NMDA-induced current on treatment with PCP (NMDA receptors; 5 μM PCP and 30 μM NMDA): decreased by half

Structure (SMILES): CC/C=C\C/C=C\C/C=C\C/C=C\C/C=C\C/C=C\CCC(=O)O [docosahexaenoic acid]
- primary side effects [1]: neither primary side effects
- variations in biochemical blood and urine tests [1]: nor significant variations in biochemical blood and urine tests
